According to patent US9723843B2, “Family of silver (I) periodate compounds having broad microbial properties” (Innovotech, Inc., priority 2011, dated 2017):
Read-outs that look alike come from different tables or passages of the source.

What was measured:
[1] = room temperature
Procedure: The purpose of this study was to determine whether or not Ag5IO6 interacts with methanol, tetrahydrofuran, acetone, and acetonitrile.
• i. […] of Ag5IO6 was placed in a vial, 2 mL of the solvent was added, and the vial was placed in a TAM III for an isothermal run at room temperature for >24 h with solvent only as the reference. The heat flow was measured. • ii. After the run was complete, the solvents were allowed to flash off and the solids collected were submitted to XRD. • iii. Samples exposed following essentially the same method for only 18 h were also submitted for XRD.

[2] = Procedure: The purpose of this study was to determine the stability of Ag5IO6 at various temperatures independent of hydrolytic or photolytic effects, in order to obtain an understanding of its storage stability, and also to perform differential scanning calorimetry and thermal gravimetry.
• i. Ag5IO6 was made fresh, a sample was submitted for XRD analysis (Day 0), and then additional samples were placed at room temperature, 40° C., 54° C., and 90° C. for 14 and 28 days in amber glass vials placed in CO2 impermeable foil pouches with desiccant packs. After the allotted time period, the samples were submitted for XRD. • Samples were submitted for DSC/TGA to measure thermal stability.

[3] = remark: listed apart in the source
Procedure: The purpose of this study was to develop a basic understanding of the solubility (and stability) of Ag5IO6 in pure water and 0.9% (physiological saline), following OECD Method (105)—flask.
• 1. About 0.1 g Ag5IO6 was weighed into 6 100 mL volumetric flasks. • 2. The flasks were filled to volume with ddH2O or 0.9% saline. • 3. The vessels were tightly stoppered and then agitated using a shaker in an incubator at 30° C. for approximately 24 hours. • 4. After 24 hours, two of the vessels (one per solvent) were equilibrated for 24 h at the test temperature (20° C., using a water bath) with occasional shaking. • 5. Pictures were obtained of the solutions and solid present. • 6. The contents of the vessels were then centrifuged at the test temperature (20° C.). • 7. The concentration of the test substance in the clear aqueous phase was determined by atomic absorption spectroscopy. • 8. The pH of the solution was measured using a pH meter. • 9. Triplicate samples of the solution were analyzed by UV-Vis spectroscopy. • 10. A sample of the solid material was collected by vacuum filtration, allowed to dry on the filter for 15 minutes, then transferred to a watch glass and placed in the fume hood to dry overnight. The sample was then packaged in a glass vial covered in aluminum foil and submitted for XRD analysis. • 11. The procedures of steps 4-10 were repeated for the second and third flask, after an initial equilibration at 30° C. for two and three days, respectively. Results

[4] = greater than 1.3 million lux hours exposure
Description: The purpose of this study was to assess the photostability of Ag5IO6 in accordance with the FDA's 1997 recommendations regarding the photostability testing of new products.
The samples were then submitted for XRD.

With `[Ag+].[Ag+].[Ag+].[Ag+].[Ag+].[O-][I+]([O-])([O-])([O-])([O-])[O-]` [Ag5IO6, pentasilver hexaoxoiodate] the “onset of significant reaction” value ([1]; THF) was roughly 56 h, the “onset of significant reaction” value ([1]; acetonitrile (slower onset)) was roughly 56 h and the “time blended with solvents without substantial reaction” value ([1]; all solvents (methanol, tetrahydrofuran, acetone, acetonitrile)) was less than 18 h. The “onset of significant reaction” value ([1]; methanol) was roughly 33 h, the “composition after storage (XRD)” value ([2]; 90° C., 14 and 28 days) was 100 % Ag5IO6 and the grain size ([2]; 90° C., Day 14) was 62 Å. For the same compound, the grain size ([2]; 90° C., Day 28) was 94 Å, the grain size ([2]; Day 0) was 14 Å and the “temperature up to which stable” value ([2]; powder) was greater than 400 °C. The “time stable at 90° C.” value ([2]; powder, 90° C.) was greater than 28 days, the “temperature up to which stable” value ([2]; powder, listed as Ag5IO6 powder) was “up to 440 °C” and the “shelf life at room temperature” value ([2]; suggested by stability at 54° C. for 28 days) was greater than 2 years. For the same compound, the solubility in saline ([3]; 0.9% saline, 20° C., calculated assuming that all Ag in solution is due to Ag5IO6) was 0.61 ± 0.05 µg/mL, the “solubility in ddH2O” value ([3]; ddH2O, 20° C., calculated assuming that all Ag in solution is due to Ag5IO6) was 24.41 ± 0.87 µg/mL and the “solid material converted to Ag metal (XRD)” value ([3]; in ddH2O) was 0.1%. The “solid material remained as Ag5IO6 (XRD)” value ([3]; in ddH2O) was “approximately 99.9%”, the “solid material converted to AgCl (XRD)” value ([3]; in saline, solid collected at the end of the experiment) was “approximately 25%” and the pH in saline ([3]; solution over Ag5IO6 in 0.9% saline) was 10. The “pH in ddH2O” value ([3]; solution over Ag5IO6 in ddH2O) was 8 and the “composition after light exposure (XRD)” value [4] was 100 % Ag5IO6.
